Measurements: PubChem BioAssay (NCI)
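These data come from cells grown in 96-well plates and exposed to compound for 48 hours at five concentrations. Here, GI50 denotes the concentration required for 50% inhibition of growth. At the TGI there is no net growth.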

Columns and labels:
Assay in all cases: NCI anticancer screen, dose series, 48 h
[1] = system: A549 NSCLC
[2] = system: CAKI-1 renal
[3] = system: COLO 205 colon
[4] = system: HL-60(TB) leukemia
[5] = system: HT29 colon
[6] = system: NCI-H23 lung
[7] = system: OVCAR-5 ovarian
[8] = system: RPMI-8226 leukemia
[9] = system: SN12C renal
[10] = system: SNB-19 CNS

| Compound | GI50 [1] | TGI [1] | GI50 [2] | TGI [2] | GI50 [3] | TGI [3] | GI50 [4] | TGI [4] | GI50 [5] | TGI [5] | GI50 [6] | TGI [6] | GI50 [7] | TGI [7] | GI50 [8] | TGI [8] | GI50 [9] | TGI [9] | GI50 [10] | TGI [10] |
| --- | --- | --- | --- | --- | --- | --- | --- | --- | --- | --- | --- | --- | --- | --- | --- | --- | --- | --- | --- | --- |
| Fc1ccc(-c2c(-c3ccncc3)n(CCN3CCOCC3)c3cccnc23)cc1 | > 25 µM | > 25 µM | > 25 µM | > 25 µM | > 25 µM | > 25 µM | > 25 µM | > 25 µM | > 25 µM | > 25 µM | > 25 µM | > 25 µM | > 25 µM | > 25 µM | > 25 µM | > 25 µM | > 25 µM | > 25 µM | > 25 µM | > 25 µM |
| NC(=NC1C2CC3CC(C2)CC1C3)Nc1ccc(I)cc1 (stereo unspecified) | 3.44 µM | 14.2 µM | 3.29 µM | 13.1 µM | 1 µM | 2.64 µM | 6.43 µM | 27.2 µM | 3.1 µM | 10.8 µM | 2.77 µM | 10.7 µM | 4.5 µM | 21.7 µM | 2.49 µM | 5.72 µM | 3.82 µM | 14.6 µM | 4.35 µM | 16.6 µM |
| Cc1cc(Br)cc(C)c1NC(=O)C(=O)C(C(=O)c1ccc(Cl)c(Cl)c1)C1OC(=O)c2ccccc21 (stereo unspecified) | – | > 100 µM | – | > 100 µM | – | > 100 µM | – | > 100 µM | – | > 100 µM | – | > 100 µM | – | > 100 µM | – | > 100 µM | – | > 100 µM | – | > 100 µM |
| CCOc1ccc(N2C(N)=NC(N)=NC2(C)C)cc1 | 50.1 µM | > 100 µM | > 100 µM | > 100 µM | 69.9 µM | > 100 µM | 72 µM | > 100 µM | 58.1 µM | > 100 µM | 58.8 µM | > 100 µM | 39.7 µM | > 100 µM | > 100 µM | > 100 µM | 52.7 µM | > 100 µM | 55.8 µM | > 100 µM |
| O=C1CCCc2c(O)ccc(O)c21 | – | > 100 µM | – | – | – | > 100 µM | – | 53.5 µM | – | > 100 µM | – | > 100 µM | – | > 100 µM | – | > 100 µM | – | > 100 µM | – | > 100 µM |
| N#CCc1nc2c(s1)C(=O)c1ccccc1C2=O | – | – | – | 38.6 µM | – | 33.4 µM | – | – | – | 46.5 µM | – | 36.4 µM | – | 37.2 µM | – | 46.6 µM | – | 33.5 µM | – | 40.7 µM |
| Cc1ccc(C)c2sc3cc(=O)ccc-3nc12 | – | > 100 µM | – | 70.5 µM | – | > 100 µM | – | 38.8 µM | – | > 100 µM | – | > 100 µM | – | 74.1 µM | – | – | – | > 100 µM | – | > 100 µM |
| COS(=O)CCOC(=O)c1ccccc1SSc1ccccc1C(=O)OCCS(=O)OC (stereo unspecified) | – | > 100 µM | – | 73.1 µM | – | 49.1 µM | – | – | – | 28.8 µM | – | 44.4 µM | – | > 100 µM | – | 57.7 µM | – | 85.9 µM | – | > 100 µM |
| C=C(C)[C@@H]1CC[C@]2(C#N)CC[C@]3(C)[C@H](CC[C@@H]4[C@@]5(C)CCCNC(C)(C)[C@@H]5CC[C@]43C)[C@@H]12 | 1.94 µM | 3.77 µM | 3.2 µM | 11.5 µM | 1.96 µM | 3.51 µM | – | – | 1.64 µM | 3.1 µM | 3.32 µM | 10.9 µM | 2.72 µM | 7.15 µM | – | – | 1.77 µM | 3.25 µM | 2.29 µM | 4.69 µM |
